What was measured:
D(3) dopamine receptor = D(3) dopamine receptor (Homo sapiens, UniProt P35462); assay: Displacement of [3H]-(R)-(+)7-OH-DPAT from human dopamine D3 receptor expressed in HEK293 cell membranes incubated for 90 mins by microbeta scintillation counting analysis
D(2) dopamine receptor = D(2) dopamine receptor (Homo sapiens, UniProt P14416); assay: Displacement of [3H]-(R)-(+)7-OH-DPAT from human dopamine D2 receptor expressed in HEK293 cell membranes incubated for 90 mins by microbeta scintillation counting analysis
Chain of D(2) dopamine receptor (P14416 whole entry): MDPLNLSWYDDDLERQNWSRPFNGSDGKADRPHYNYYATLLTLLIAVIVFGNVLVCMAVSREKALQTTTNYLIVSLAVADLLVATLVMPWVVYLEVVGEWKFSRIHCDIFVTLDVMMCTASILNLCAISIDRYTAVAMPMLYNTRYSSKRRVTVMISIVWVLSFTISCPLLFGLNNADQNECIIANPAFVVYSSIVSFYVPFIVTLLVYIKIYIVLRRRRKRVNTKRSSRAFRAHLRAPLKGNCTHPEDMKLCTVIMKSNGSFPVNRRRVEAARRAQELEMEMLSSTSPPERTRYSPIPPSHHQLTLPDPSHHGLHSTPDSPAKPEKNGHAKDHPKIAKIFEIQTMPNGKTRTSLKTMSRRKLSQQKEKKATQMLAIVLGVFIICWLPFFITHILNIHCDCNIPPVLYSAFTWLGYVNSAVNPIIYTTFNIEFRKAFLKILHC

Chain of D(3) dopamine receptor (P35462 whole entry): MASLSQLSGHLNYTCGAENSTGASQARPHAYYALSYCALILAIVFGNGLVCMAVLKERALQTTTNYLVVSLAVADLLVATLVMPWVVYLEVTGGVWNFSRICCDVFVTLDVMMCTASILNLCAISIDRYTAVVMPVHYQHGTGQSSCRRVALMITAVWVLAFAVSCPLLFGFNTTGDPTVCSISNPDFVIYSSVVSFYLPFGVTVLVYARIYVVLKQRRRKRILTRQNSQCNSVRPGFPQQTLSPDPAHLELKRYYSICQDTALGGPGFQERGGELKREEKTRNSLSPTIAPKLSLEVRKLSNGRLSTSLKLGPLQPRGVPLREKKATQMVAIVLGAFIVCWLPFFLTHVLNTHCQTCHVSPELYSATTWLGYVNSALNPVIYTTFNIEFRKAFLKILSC

Row | SMILES | Ki (D(3) dopamine receptor) [nM] | Ki (D(2) dopamine receptor) [nM]
1 | CN(CC[C@@H]1CC[C@@H](CNC(=O)c2cc3ccccc3[nH]2)C1)[C@@H]1Cc2cccc3[nH]c(=O)n(c23)C1 | 77 | 4.6
2 | CN(CC[C@@H]1CC[C@H](CNC(=O)c2cc3ccccc3[nH]2)C1)[C@@H]1Cc2cccc3[nH]c(=O)n(c23)C1 | 20 | 2
